This note sets out measurements from ChEMBL document CHEMBL5357010, “Amine Basicity of Quinoline ATP Synthase Inhibitors Drives Antibacterial Activity against Pseudomonas aeruginosa” (ACS Med Chem Lett, 2024).

A short description of data set [1]: Inhibition of Pseudomonas aeruginosa ATP synthase expressed in Escherichia coli DK8/pASH20 inverted membrane vesicles by luciferin/luciferase luminescence assay. Type of data set: cell membranes, Membrane vesicle.
The nature of data set [2]: Selectivity ratio of IC50 for Pseudomonas aeruginosa 9027 electron transport chain to IC50 for Pseudomonas aeruginosa ATP synthase. Type of data set: toxicity.
Data set [3] in a line: Inhibition of Pseudomonas aeruginosa 9027 electron transport chain in inverted membrane vesicles assessed as fluorescence quenching using amino-6-chloro-2-methoxyacridine. Type of data set: cell membranes.
The nature of data set [4]: Solubility of the compound in antibacterial activity assay medium. Type of data set: physicochemical.
Data set [5] in a line: Inhibition of Escherichia coli electron transport chain in inverted membrane vesicles. Type of data set: cell membranes.
For data set [6], the system named is Pseudomonas aeruginosa. Put plainly: Antibacterial activity against Pseudomonas aeruginosa ATCC BAA-2110 assessed as growth inhibition incubated for 12 to 15 hrs by broth microdilution method. Type of data set: functional. To be noted: time 12-15 hrs. (Broth dilution looks for growth in wells or tubes with falling amounts of substance.)
Data set [7] deals with Pseudomonas aeruginosa. Kind of data set: Antibacterial activity against Pseudomonas aeruginosa efflux knockout GKCW120 (Pdelta6) assessed as growth inhibition incubated for 12 to 15 hrs by broth microdilution method. Type of data set: functional. To be noted: time 12-15 hrs.
For data set [8], the system named is Pseudomonas aeruginosa. Put plainly: Antibacterial activity against Pseudomonas aeruginosa ATCC BAA-2109 assessed as growth inhibition incubated for 12 to 15 hrs by broth microdilution method. Type of data set: functional. To be noted: time 12-15 hrs.
For data set [9], the system named is Pseudomonas aeruginosa. Kind of data set: Antibacterial activity against Pseudomonas aeruginosa 9027 assessed as growth inhibition incubated for 12 to 15 hrs by broth microdilution method. Type of data set: functional. The conditions noted are these: time 12-15 hrs.
Data set [10] relates to Pseudomonas aeruginosa. Put plainly: Antibacterial activity against Pseudomonas aeruginosa ATCC BAA-2108 assessed as growth inhibition incubated for 12 to 15 hrs by broth microdilution method. Type of data set: functional. To be noted: time 12-15 hrs.

In brackets after ≈: the same amount, converted by molar mass. Some results are limits rather than exact numbers.

Take `CN(C)CCCCNCc1cc2ccccc2nc1SCc1ccccc1`: the IC50 in data set [1] is 1 µg/mL (≈ 2.63 µM); in [3], 26 µg/mL (≈ 68.5 µM). The “Ratio IC50” value in data set [2] came to 26.

In data set [4], `CN(C)c1ccc(CNCc2cc3ccccc3nc2SCc2ccccc2)cc1` displayed a solubility above 16 µg/mL.

With `CCN1CCC(CCNCc2cc3ccccc3nc2SCc2ccccc2)CC1`, the IC50 in data set [1] came to 1 µg/mL (≈ 2.38 µM); in data set [3], 26 µg/mL (≈ 62 µM). Besides, the “Ratio IC50” value in data set [2] worked out at 26.

Molecule `CSc1nc2ccccc2cc1CNCCc1cnc[nH]1` registered an IC50 in data set [1] of 16 µg/mL (≈ 53.6 µM).

`CSc1nc2ccccc2cc1CNCCc1nc(C)cc(C)n1` displayed an IC50 in data set [1] of 67 µg/mL (≈ 198 µM).

Take `CSc1nc2ccccc2cc1CNCCCCN(C)C`: the IC50 in data set [1] was 68 µg/mL (≈ 224 µM).

In data set [1], `Cc1cc(C)nc(CCNCc2cc3ccccc3nc2SCc2ccccc2)n1` came in with an IC50 of 3 µg/mL (≈ 7.24 µM).

In the case of `CSc1nc2ccccc2cc1CNCCCCCN(C)C`, the concentration for half-maximal inhibition (IC50) in [1] came to 19 µg/mL (≈ 59.8 µM).

The molecule `CSc1nc2ccccc2cc1CNCCCN(C)C` showed an IC50 in [1] of 43 µg/mL (≈ 149 µM).

As to `CSc1nc2ccccc2cc1CNCCc1cccn1C`, in data set [1], the IC50 came out at 5 µg/mL (≈ 16.1 µM).

Take `c1ccc(CSc2nc3ccccc3cc2CNCCc2cnc[nH]2)cc1`: the values for the IC50 in [5], in data set [1] and in data set [3] were 14 µg/mL (≈ 37.4 µM), 2 µg/mL (≈ 5.34 µM) and 7 µg/mL (≈ 18.7 µM), respectively.

Regarding `CSc1nc2ccccc2cc1CNCc1ccc(N(C)C)cc1`, in data set [1], the IC50 amounted to 5 µg/mL (≈ 14.8 µM).

`CCN1CCC(CCNCc2cc3ccccc3nc2SC)CC1`: the IC50 in data set [1] was 39 µg/mL (≈ 114 µM).

For the molecule `CN(C)Cc1ccc(CNCc2cc3ccccc3nc2SCc2ccccc2)cc1`, the “MIC>85” value is above 128 µg/mL in the data set on Pseudomonas aeruginosa [6]; 16 µg/mL (≈ 37.4 µM) in the data set on Pseudomonas aeruginosa [7]; above 128 µg/mL with Pseudomonas aeruginosa [8]; above 128 µg/mL in the data set with Pseudomonas aeruginosa [9]; 64 µg/mL (≈ 150 µM) with Pseudomonas aeruginosa [10]. For the same molecule, the IC50 in data set [1] came out at 2.3 µg/mL (≈ 5.38 µM); in [3], 27 µg/mL (≈ 63.1 µM). Moreover, the “Ratio IC50” value in [2] turned out to be 12.

For the molecule `CN(C)CCCNCc1cc2ccccc2nc1SCc1ccccc1`, the IC50 in data set [1] was 6 µg/mL (≈ 16.4 µM); in data set [3] it was 44 µg/mL (≈ 120 µM). Besides, in data set [2], the “Ratio IC50” value came out at 7.

For the molecule GENTAMICIN, the MIC>85 in the data set on Pseudomonas aeruginosa [6] was 4 µg/mL; in the data set with Pseudomonas aeruginosa [7], above 4 µg/mL; in the data set on Pseudomonas aeruginosa [8], 2 µg/mL; with Pseudomonas aeruginosa [9], 2 µg/mL; in the data set on Pseudomonas aeruginosa [10], 16 µg/mL.

Consider `CSc1nc2ccccc2cc1CNCc1ccc(CN(C)C)cc1`, for which the “MIC>85” value in the data set with Pseudomonas aeruginosa [6] was above 256 µg/mL; in the data set with Pseudomonas aeruginosa [7] it was 64 µg/mL (≈ 182 µM); in the data set on Pseudomonas aeruginosa [8], 256 µg/mL (≈ 728 µM); with Pseudomonas aeruginosa [9], above 256 µg/mL; with Pseudomonas aeruginosa [10], 128 µg/mL (≈ 364 µM). Also, the IC50 in data set [1] stood at 30 µg/mL (≈ 85.3 µM); in data set [3] it was 29 µg/mL (≈ 82.5 µM). In [2], the “Ratio IC50” value stood at 1.

For `CN(C)CCCCCNCc1cc2ccccc2nc1SCc1ccccc1`, the IC50 is 2 µg/mL (≈ 5.08 µM) in [1] and 57 µg/mL (≈ 145 µM) in [3]. For the same molecule, the “Ratio IC50” value in [2] is recorded as 28.

On to `c1ccc(CSc2nc3ccccc3cc2CNCCC2CCN(C3CCCC3)CC2)cc1`, for which the IC50 worked out at 1 µg/mL (≈ 2.18 µM) in [1] and 14 µg/mL (≈ 30.5 µM) in data set [3]. Moreover, the “Ratio IC50” value in data set [2] was found to be 14.

Turning to `CSc1nc2ccccc2cc1CNCCC1CCN(C2CCCC2)CC1`, the IC50 in [1] came out at 21 µg/mL (≈ 54.7 µM).

With `Cn1cccc1CCNCc1cc2ccccc2nc1SCc1ccccc1`, the IC50 in [1] was 4 µg/mL (≈ 10.3 µM).

Usually IC50 stands for the concentration at which inhibition is half-maximal. What is called solubility is the dissolved amount per volume that the medium holds. Read a low solubility as little dissolved substance.
